Data taken from the NIST ThermoML archive (doi:10.1016/j.jct.2006.05.004).

Key:
[1] = xn = mol fraction of the nth substance listed; details: 298.15 K, 101 kPa, Liquid
[2] = excess molar enthalpy (molar enthalpy of mixing); xn = mol fraction of the nth substance listed; details: 298.15 K, 101 kPa, Liquid

BrCCBr [1,2-dibromoethane] + CCC(=O)OC
Details	excess molar enthalpy [kcal/mol]	mass density [kg/m3]
[1], x2 = 0.0544	–	2090.48
[1], x2 = 0.1086	–	2015.14
[1], x2 = 0.1617	–	1942.18
[1], x2 = 0.213	–	1872.81
[1], x2 = 0.2714	–	1794.99
[1], x2 = 0.3254	–	1724.12
[1], x2 = 0.4447	–	1570.72
[1], x2 = 0.5056	–	1494.18
[1], x2 = 0.561	–	1425.55
[1], x2 = 0.6166	–	1357.57
[1], x2 = 0.6838	–	1276.41
[1], x2 = 0.743	–	1205.94
[1], x2 = 0.8086	–	1129
[1], x2 = 0.8715	–	1056.36
[1], x2 = 0.9358	–	982.68
[2], x1 = 0.0552	0.0107	–
[2], x1 = 0.1177	0.0166	–
[2], x1 = 0.18	0.0207	–
[2], x1 = 0.2446	0.0215	–
[2], x1 = 0.3072	0.0203	–
[2], x1 = 0.3659	0.0179	–
[2], x1 = 0.4203	0.0141	–
[2], x1 = 0.4702	0.00939	–
[2], x1 = 0.4789	0.00657	–
[2], x1 = 0.5086	0.00466	–
[2], x1 = 0.5255	0.00246	–
[2], x1 = 0.5837	-0.00251	–
[2], x1 = 0.6456	-0.00514	–
[2], x1 = 0.7119	-0.00614	–
[2], x1 = 0.7852	-0.00672	–
[2], x1 = 0.8597	-0.00547	–
[2], x1 = 0.9321	-0.00287	–

BrCCBr [1,2-dibromoethane] + CCCC(=O)OC
Details	excess molar enthalpy [kcal/mol]	mass density [kg/m3]
[1], x2 = 0.0456	–	2090.91
[1], x2 = 0.0934	–	2013.52
[1], x2 = 0.138	–	1943.4
[1], x2 = 0.1885	–	1866.04
[1], x2 = 0.2437	–	1784.45
[1], x2 = 0.2925	–	1714.77
[1], x2 = 0.3454	–	1641.47
[1], x2 = 0.4047	–	1562.1
[1], x2 = 0.5193	–	1415.94
[1], x2 = 0.5812	–	1340.87
[1], x2 = 0.6461	–	1264.87
[1], x2 = 0.7118	–	1190.49
[1], x2 = 0.7767	–	1119.58
[1], x2 = 0.8458	–	1046.47
[1], x2 = 0.9209	–	970.06
[2], x2 = 0.0509	0.0049	–
[2], x2 = 0.1042	0.00772	–
[2], x2 = 0.1621	0.00858	–
[2], x2 = 0.2266	0.00748	–
[2], x2 = 0.2928	0.00418	–
[2], x2 = 0.3635	-0.00086	–
[2], x2 = 0.4243	-0.00672	–
[2], x2 = 0.4796	-0.0115	–
[2], x2 = 0.537	-0.0148	–
[2], x2 = 0.6008	-0.0165	–
[2], x2 = 0.6755	-0.0168	–
[2], x2 = 0.7537	-0.0152	–
[2], x2 = 0.8373	-0.0118	–
[2], x2 = 0.9188	-0.00707	–

BrCCCBr [1,3-dibromopropane] + COC(C)=O
Details	excess molar enthalpy [kcal/mol]	mass density [kg/m3]
[1], x2 = 0.0821	–	1900.75
[1], x2 = 0.1456	–	1845.13
[1], x2 = 0.2131	–	1784.87
[1], x2 = 0.2862	–	1717.43
[1], x2 = 0.3503	–	1656.68
[1], x2 = 0.412	–	1596.53
[1], x2 = 0.4744	–	1533.88
[1], x2 = 0.535	–	1471.53
[1], x2 = 0.5898	–	1413.65
[1], x2 = 0.6476	–	1350.9
[1], x2 = 0.7027	–	1289.26
[1], x2 = 0.7565	–	1227.76
[1], x2 = 0.8086	–	1166.64
[1], x2 = 0.8558	–	1109.89
[1], x2 = 0.905	–	1048.62
[1], x2 = 0.9514	–	989.83
[2], x2 = 0.08	0.034	–
[2], x2 = 0.1613	0.0558	–
[2], x2 = 0.2406	0.0748	–
[2], x2 = 0.3177	0.0867	–
[2], x2 = 0.3862	0.091	–
[2], x2 = 0.4435	0.0934	–
[2], x2 = 0.4958	0.0935	–
[2], x2 = 0.5468	0.0894	–
[2], x2 = 0.5909	0.0838	–
[2], x2 = 0.6336	0.078	–
[2], x2 = 0.6509	0.0747	–
[2], x2 = 0.6702	0.0722	–
[2], x2 = 0.7094	0.0627	–
[2], x2 = 0.7687	0.0505	–
[2], x2 = 0.8316	0.0365	–
[2], x2 = 0.8928	0.0229	–
[2], x2 = 0.9501	0.0112	–

BrCCCBr [1,3-dibromopropane] + CCCC(=O)OC
Details	excess molar enthalpy [kcal/mol]	mass density [kg/m3]
[1], x2 = 0.0527	–	1904.53
[1], x2 = 0.1033	–	1844.63
[1], x2 = 0.1625	–	1775.48
[1], x2 = 0.2135	–	1716.63
[1], x2 = 0.268	–	1654.61
[1], x2 = 0.3273	–	1588.07
[1], x2 = 0.3844	–	1524.77
[1], x2 = 0.4397	–	1464.34
[1], x2 = 0.4966	–	1402.92
[1], x2 = 0.5597	–	1335.77
[1], x2 = 0.6194	–	1273.09
[1], x2 = 0.6773	–	1213.28
[1], x2 = 0.7401	–	1149.07
[1], x2 = 0.8089	–	1079.72
[1], x2 = 0.8623	–	1026.6
[1], x2 = 0.9397	–	950.76
[2], x2 = 0.0571	0.00789	–
[2], x2 = 0.1319	0.0136	–
[2], x2 = 0.2164	0.0167	–
[2], x2 = 0.3018	0.0163	–
[2], x2 = 0.3823	0.0126	–
[2], x2 = 0.4559	0.00676	–
[2], x2 = 0.5207	-0.000191	–
[2], x2 = 0.5371	-0.00325	–
[2], x2 = 0.5718	-0.00545	–
[2], x2 = 0.6497	-0.00978	–
[2], x2 = 0.7433	-0.0109	–
[2], x2 = 0.8389	-0.00956	–
[2], x2 = 0.9316	-0.00511	–
